Columns and labels:
[1] = system: lethally-irradiated female B6D2F1 mice; assay: Survival of lethally-irradiated mice (10 Gy total body irradiation); type: in vivo; settings: groups of 12 animals
Experimental: Treatment of ionizing radiation exposure. The effect of selected F1Cs on survival of lethally-irradiated female B6D2F1 mice were compared to control animals treated with vehicle alone. The animals were exposed to 10 Gy of total body irradiation at 2.5 Gy/min using a ^137Cs source. […] For Group 4, test article was administered as a 50 μL volume, by intramuscular injection for three consecutive days. The formulation was a suspension containing 0.1% w/v carboxymethyl-cellulose, 0.9% w/v sodium chloride and 0.05% v/v phenol. The formulations were agitated to uniformly resuspend the F1C before syringing, and injected into animals within a few minutes of drawing into the syringe to prevent settling in the syringe.
The groups of animals were treated as follows.
The number of surviving animals is shown for day 6, 7, 12 and 21.

[2] = system: U937 human promonocytic leukemia cells; assay: Microarray analysis of transcript levels in PMA-treated U937 cells exposed to BrEA; type: cell-based; settings: for Ratio of BrEA treated cells compared to control cells (transcript level): 10 μM BrEA, PMA-treated U937 cells
From the text: Modulation of transcription. The effect of 16α-bromoepiandrosterone (“BrEA”) on transcript levels in cells in vitro was studied using a microarray to allow simultaneous monitoring of the expression of many genes to allow detailed analysis of the molecular pathways involved in biological responses to the compound.
In general, microarray technology works by covalently linking short DNA sequences that are complementary to the transcripts of many different genes on a single slide or array chip. mRNAs from test and control samples are generated and labeled with one or more colored fluorescent dyes or probes. The probes are hybridized with the array, which is then scanned by laser. The color and intensity of the fluorescent signal at each spot denotes relative expression level of each gene. The capacity of other F1Cs described herein, e.g., a F1C in compound group 1, 2, 3, 4 or 5, to modulate gene expression is characterized in a similar manner.
The array used in the experiment described below, contained about 12,000 known genes. The experiment used U937 human promonocytic leukemia cells that differentiate to monocyte/macrophage cells in the presence of phorbol-12-myristate-13-acetate (“PMA”). The U937 cells were PMA treated and then exposed to BrEA for 1 hr, 2 hrs, or 4 hrs, followed by bacterial lipopolysaccharide (“LPS”) stimulation for 1 hr, 2 hrs or 4 hrs. The level of transcripts of the genes on the array was measured at the time points using RNA prepared from BrEA-treated and control (no BrEA) cells. U937 cells were plated at 1×10^5 cells/mL in the presence of 3 ng/mL PMA (Sigma, Catalog #P-8139) for 48 hrs. Cells were then treated with either 10 μM BrEA or DMSO (vehicle) for 1 hr, 2 hr, and 4 hrs. At each time point, cells were harvested and total RNA was extracted using Qiagen Rneasy kit according to manufacturer's specification. Total RNA samples were then analyzed by Mergen Ltd. (San Leandro, Calif. www.mergen.com) to perform microarray assay.
For the microarray assay, Dnase-treated total RNA (20 micrograms) was reverse-transcribed using an oligo[(dT)24 T7 promoter]65 primer (consisting of the nucleotide binding sequence for the T7 RNA polymerase followed by 24 thymidine nucleotides). This was followed by second strand synthesis. The reaction mixture was then treated with Rnase I to digest the remaining RNA. The double-stranded cDNA was phenol-chloroform extracted and used as template for in vitro transcription (T7 MEGAscript, Ambion, Inc.) to generate biotin-labeled cRNA probes. These probes were hybridized overnight at 30° C. with continuous agitation to Mergen's ExpressChip HO5 DNA Microarray System (catalog number HO5-001) containing 12,000 genes. The arrays were then washed, and hybridized probes were detected using Mergen's cyanine-3 fluorescent dye-conjugated protein. Chips were imaged using an Affymetrix 417-418 form Affymetrix/Genetic MicroSystems (www.affymetrix.com) and spot intensity was quantitated using ImaGenefrom BioDiscovery Inc. .______
The up-regulation of many of these genes most apparent at 4 hr after treatment, at which time roughly 700 genes were within the above criteria. Some examples are shown in the following list. The ratios given in the list are from BrEA treated cells compared to control cells not treated with BrEA.

female BALB/cByJ mice = assay: Delayed type hypersensitivity (DTH) response to topical oxazolone challenge, differential ear thickness; type: in vivo; settings: 24 hours after oxazolone challenge; vehicle alone 0.225 mm
Experimental: Modulation of delayed type hypersensitivity. The capacity of F1Cs to modulate delayed type hypersensitivity (DTH) is determined in mice. Groups of five female BALB/cByJ mice (20-25 grams) are anesthetized and 100 μL of a 3% solution of oxazolone is applied on day 0 to the shaved abdomen and dried. Seven days later, on day 7, the mice are challenged by applying 5 μL of oxazolone topically to each side of the right ear. The F1C (at about 20-100 mg/mL) in vehicle is administered by subcutaneous injection (2 mg/day) one time on day 6, 24 hours before the oxazolone challenge. The vehicle as a non-aqueous suspension of the F1C in, e.g., 2% benzyl alcohol w/v, 0.1% Brij 96 w/v and equal volumes of PEG 300 and propylene glycol.
Dexamethasone in saline (0.2 mg/mL) is administered daily for 9 days (day −1 to 7), first dose 24 hours before sensitization, last dose at challenge by subcutaneous injection (0.01 mg/dose, 50 μL/injection). On Day 8, 24 hours following the oxazolone challenge, both the right and left ear thicknesses are measured using a micrometer caliper and the differences are determined. The differential ear thickness is measured as an indicator of the DTH response to topical oxazolone challenge. The DTH response is expressed as the difference in the thickness (mm) between the right and the left ears for each animal.

[3] = 0.6 mg i.m. daily for 3 consecutive days after 10 Gy
[4] = 0.6 mg s.c. daily for 3 consecutive days, first dose 2 to 4 hours after 10 Gy
[5] = 3.0 mg s.c. daily for 3 consecutive days after 10 Gy

SMILES: C[C@]12CC[C@H]3[C@@H](CC=C4C[C@@H](O)CC[C@@]43C)[C@@H]1CC[C@@H]2O [3β,17β-dihydroxyandrost-5-ene]
- number of surviving animals, day 6 [1, 3]: 12
- number of surviving animals, day 7 [1, 3]: 12
- number of surviving animals, day 12 [1, 3]: 11
- number of surviving animals, day 21 [1, 3]: 9
- number of surviving animals, day 6 [1, 4]: 12
- number of surviving animals, day 7 [1, 4]: 11
- number of surviving animals, day 12 [1, 4]: 10
- number of surviving animals, day 21 [1, 4]: 7
- number of surviving animals, day 6 [1, 5]: 12
- number of surviving animals, day 7 [1, 5]: 12
- number of surviving animals, day 12 [1, 5]: 9
- number of surviving animals, day 21 [1, 5]: 7

SMILES: C[C@]12CC[C@H]3[C@@H](CC=C4C[C@@H](O)CC[C@@]43C)[C@@H]1CC[C@@H]2N [3β-hydroxy-17β-aminoandrost-5-ene]
- number of surviving animals, day 6 [1, 4]: 12
- number of surviving animals, day 7 [1, 4]: 12
- number of surviving animals, day 12 [1, 4]: 12
- number of surviving animals, day 21 [1, 4]: 11

SMILES: C[C@]12CC[C@H](O)C[C@@H]1CC[C@@H]1[C@@H]2CC[C@]2(C)C(=O)[C@H](Br)C[C@@H]12 [BrEA, 16α-bromoepiandrosterone]
- number of genes up-regulated (at least two-fold higher than control and significantly higher than background) ([2]; 4 hr after treatment, array of about 12,000 genes): roughly 700 genes
- transcripts of Cul1 ([2]; at 1 hr): increased
- transcripts of EGR1 ([2]; at 1 hr): increased
- transcripts of USF1 ([2]; at 1 hr): increased
- transcripts of c-Fos ([2]; at 1 hr): increased
- Jun B transcript ([2]; at 4 hrs): increased
- Ratio of BrEA treated cells compared to control cells (transcript level) ([2]; gene ATF3 (Hs.460)): 5.3
- Ratio of BrEA treated cells compared to control cells (transcript level) ([2]; gene ATP2B1 (Hs.78546)): 5.4
- Ratio of BrEA treated cells compared to control cells (transcript level) ([2]; gene DUSP5 (Hs.2128)): 10.2
- Ratio of BrEA treated cells compared to control cells (transcript level) ([2]; gene EHD1 (Hs.155119)): 9.7
- Ratio of BrEA treated cells compared to control cells (transcript level) ([2]; gene GG2-1 (Hs.17839)): 10.3
- Ratio of BrEA treated cells compared to control cells (transcript level) ([2]; gene GRO2 (Hs.75765)): 9.6
- Ratio of BrEA treated cells compared to control cells (transcript level) ([2]; gene GRO3 (Hs.89690)): 124.7
- Ratio of BrEA treated cells compared to control cells (transcript level) ([2]; gene HIVEP2 (Hs.75063)): 6.6
- Ratio of BrEA treated cells compared to control cells (transcript level) ([2]; gene HSPA1B (Hs.274402)): 7.8
- Ratio of BrEA treated cells compared to control cells (transcript level) ([2]; gene IL1B (Hs.126256)): 27.5
- Ratio of BrEA treated cells compared to control cells (transcript level) ([2]; gene IL1RN (Hs.81134)): 53.0
- Ratio of BrEA treated cells compared to control cells (transcript level) ([2]; gene IL15RA (Hs.12503)): 7.6
- Ratio of BrEA treated cells compared to control cells (transcript level) ([2]; gene IL23A (Hs.98309)): 131.8
- Ratio of BrEA treated cells compared to control cells (transcript level) ([2]; gene INHBA (Hs.727)): 21.5
- Ratio of BrEA treated cells compared to control cells (transcript level) ([2]; gene KIAA1376 (Hs.24684)): 7.7
- Ratio of BrEA treated cells compared to control cells (transcript level) ([2]; gene KIAA1726 (Hs.164719)): 6.9
- Ratio of BrEA treated cells compared to control cells (transcript level) ([2]; gene LOC51285 (Hs.27018)): 5.9
- Ratio of BrEA treated cells compared to control cells (transcript level) ([2]; gene MACS (Hs.75607)): 30.0
- Ratio of BrEA treated cells compared to control cells (transcript level) ([2]; gene MAIL (Hs.301183)): 25.5
- Ratio of BrEA treated cells compared to control cells (transcript level) ([2]; gene MAP3K5 (Hs.151988)): 7.1
- Ratio of BrEA treated cells compared to control cells (transcript level) ([2]; gene MGC5618 (Hs.177781)): 32.0
- Ratio of BrEA treated cells compared to control cells (transcript level) ([2]; gene NAF1 (Hs.109281)): 6.4
- Ratio of BrEA treated cells compared to control cells (transcript level) ([2]; gene NFKBIA (Hs.81328)): 11.3
- Ratio of BrEA treated cells compared to control cells (transcript level) ([2]; gene OLR1 (Hs.77729)): 26.1
- Ratio of BrEA treated cells compared to control cells (transcript level) ([2]; gene PBEF (Hs.239138)): 9.2
- Ratio of BrEA treated cells compared to control cells (transcript level) ([2]; gene PIM2 (Hs.80205)): 14.5
- Ratio of BrEA treated cells compared to control cells (transcript level) ([2]; gene PKIG (Hs.3407)): 5.4
- Ratio of BrEA treated cells compared to control cells (transcript level) ([2]; gene PTX3 (Hs.2050)): 1348.4
- Ratio of BrEA treated cells compared to control cells (transcript level) ([2]; gene REV3L (Hs.115521)): 5.3
- Ratio of BrEA treated cells compared to control cells (transcript level) ([2]; gene RGS16 (Hs.183601)): 29.2
- Ratio of BrEA treated cells compared to control cells (transcript level) ([2]; gene RIPK2 (Hs.103755)): 6.6
- Ratio of BrEA treated cells compared to control cells (transcript level) ([2]; gene SCYA1 (Hs.72918)): 40.4
- Ratio of BrEA treated cells compared to control cells (transcript level) ([2]; gene SCYA4 (Hs.75703)): 67.3
- Ratio of BrEA treated cells compared to control cells (transcript level) ([2]; gene SCYA8 (Hs.271387)): 7.0
- Ratio of BrEA treated cells compared to control cells (transcript level) ([2]; gene SCYA20 (Hs.75498)): 174.0
- Ratio of BrEA treated cells compared to control cells (transcript level) ([2]; gene SERPINE1 (Hs.82085)): 8.4
- Ratio of BrEA treated cells compared to control cells (transcript level) ([2]; gene SOD2 (Hs.318885)): 39.7
- Ratio of BrEA treated cells compared to control cells (transcript level) ([2]; gene SSI-1 (Hs.50640)): 16.9
- Ratio of BrEA treated cells compared to control cells (transcript level) ([2]; gene STAT5A (Hs.167503)): 5.9
- Ratio of BrEA treated cells compared to control cells (transcript level) ([2]; gene STK2 (Hs.1087)): 9.0
- Ratio of BrEA treated cells compared to control cells (transcript level) ([2]; gene TNFAIP2 (Hs.101382)): 17.4
- Ratio of BrEA treated cells compared to control cells (transcript level) ([2]; gene TNFAIP3 (Hs.211600)): 5.1
- Ratio of BrEA treated cells compared to control cells (transcript level) ([2]; gene TNFAIP6 (Hs.29352)): 1733.0
- Ratio of BrEA treated cells compared to control cells (transcript level) ([2]; gene TRAF1 (Hs.2134)): 15.0
- Ratio of BrEA treated cells compared to control cells (transcript level) ([2]; gene TRG@ (Hs.112259)): 17.4

SMILES: O=P1(N(CCCl)CCCl)NCCCO1 (stereo not drawn) [cyclophosphamide]
- DTH response (differential ear thickness, right minus left ear) (female BALB/cByJ mice): 0.092 mm

SMILES: C[C@@H]1C[C@H]2[C@@H]3CCC4=CC(=O)C=C[C@]4(C)[C@@]3(F)[C@@H](O)C[C@]2(C)[C@@]1(O)C(=O)CO [dexamethasone]
- DTH response (differential ear thickness, right minus left ear) (female BALB/cByJ mice): 0.144 mm
